The record followed here is US10440955B2, “Methods comprising a biocidal polyamine” (Curza Global, LLC, priority 2013, dated 2019).

By MIC is commonly meant the lowest concentration that inhibits growth of the organism. A lower MIC goes with a more susceptible organism.

“And” between values parts separate entries of the source, which are not always exact repeats. Equal entries are not always repeated. Structures can show the parent of a compound that is named as a salt. Some results are limits rather than exact numbers.

One data set deals with MRSA. Description: MIC against MRSA (as defined by CLSI). As to conditions: Staphylococcus aureus, FIG. 25. The format is cell-based. Here is the method: To determine the MIC of the polyamine chains alone and the synthesized compounds against MRSA and P. aeruginosa ATCC 27853, a modified protocol from the Clinical and Laboratory Standards Institute (CLSI) guideline M26-A was used. […] All data was collected using cation adjusted MHB for standardization.
As mentioned, MRSA and P. aeruginosa ATCC 27853 were grown on Columbia blood agar plates prior to experimentation. From the blood agar plates, a 0.5 McFarland standard was made of each isolate. This equated to approximately 5×10^7 cells/mL for the MRSA isolate and approximately 3×10^7 cells/mL for the P. aeruginosa ATCC 27853 isolate. Of the 0.5 McFarland stock solution, 50 μL were added to MHB. […] All tests were performed such that a final volume of 5 mL of MHB were obtained. This provided a final bacterial concentration of approximately 5×10^5 cells/mL.
Each sample was incubated in glass test tubes at 37° C. for 24 hours, then plated in duplicate on tryptic soy agar (TSA) using a 10-fold dilution series. TSA plates were further incubated 24 hours at 37° C. The number of colony forming units (CFU) that grew were counted in order to calculate the number of bacteria that were present per mL in the original MHB solution.

The subject of another data set is biofilm of MRSA. In words: Combination treatment: dispersal of a biofilm. The format is cell-based, Staphylococcus aureus. As to conditions: […] mixed with chlorhexidine gluconate at […]; biofilm of 10^11 cells; within one hour.
The next data set concerns human blood. Description: Hemolysis test with diluted human blood (ISO 10993-4). The format is cell-based. From the text:
Procedure: The PBS used in testing was calcium and magnesium free. The method has been validated using human blood from one donor. This is in compliance with ISO 10993-4 which states due to differences in blood activity, human blood should be used where possible. Furthermore, pooling unmatched human blood from multiple donors may cause red blood cell agglutination which in turn could cause hemolysis; this supports the use of a single donor.
The blood was drawn using vacutainers containing 0.1 M sodium citrate at a ratio of 9:1 (3.2% anticoagulant to blood). The blood in this test was used within four hours of blood draw. The collected blood was refrigerated until testing was performed.
A hemoglobin standard was diluted with Drabkin's reagent to give solutions at concentrations of 0.80, 0.60, 0.40, 0.30, 0.20, 0.10, 0.02, and 0.01 mg/ml. These solutions were allowed to stand at room temperature for a minimum of five minutes. The absorbance was read on a spectrophotometer at 540 nanometers (nm). A standard curve was determined with the absorbance values and the standard concentrations of hemoglobin.
Human blood was centrifuged at 700-800×g for 15 minutes. A 1 mL aliquot of the plasma was added into 1 mL of Drabkin's reagent, and placed at room temperature for a minimum of 15 minutes. The absorbance was read on a spectrophotometer at 540 nm. The hemoglobin concentration was determined from the standard curve and then multiplied by a factor of 2 to obtain the total plasma free hemoglobin. The plasma free hemoglobin was less than 2 mg/mL (actual value 0.221 mg/mL). A 20 μL aliquot of blood was added to 5 mL of Drabkin's reagent in duplicate and allowed to stand at room temperature for a minimum of 15 minutes. The absorbance was read on a spectrophotometer at 540 nm then multiplied by 251 to account for the dilution.
Based on the plasma hemoglobin and the blood absorbance against Drabkin's reagent, the blood was diluted out to 10±1 mg/mL with PBS. To verify the blood dilution, a 300 μL aliquot of this blood was added to 4.5 mL of Drabkin's reagent in triplicate and allowed to stand at room temperature for a minimum of 15 minutes. The absorbance was read on a spectrophotometer at 540 nm then multiplied by 16 to account for the dilution.
Glass test tubes were labeled appropriately. Both samples were prepared the same way. The samples were allowed to thaw prior to testing. To each test tube, 7 mL of the test article and 1 mL of the diluted blood were added. The controls consisted of the appropriate amount of control material, 7 mL of PBS and 1 mL of blood. Three tubes were prepared for each test article and control. The tubes were incubated at 37±2° C. for 3 hours±5 minutes. Tubes were gently inverted twice at 30 minute intervals throughout the incubation period. A non-hemolytic negative control, a hemolytic positive control and a PBS blank were included.
After incubation, test articles were centrifuged at 700-800×g for 15 minutes and 1 mL of the supernatant fluid was combined with 1 mL of Drabkin's reagent and allowed to stand at room temperature for a minimum of 15 minutes. Following the centrifugation phase, the supernatant of both test articles visually appeared clear and were particulate free. The PBS blank and the negative control supernatant visually appeared clear and were particulate free. The supernatant of the positive control visually appeared red and were particulate free. The test articles and controls were read at 540 nm in a spectrophotometer.
The hemolytic index (percent hemolysis) was interpreted using the following equation:
[formula] Where: Hemoglobin Released (mg/mL)=(Optical Density×X Coefficient+Constant)×16 Hemoglobin Present (mg/ml)=Diluted Blood 10±1 mg/mL
The corrected hemolytic index was calculated by subtracting the hemolytic index of the PBS blank solution from the hemolytic index of the test article and controls. […]

The test system of another data set is MRSA biofilm. Description: MBEC assay (Calgary Biofilm Device), eradication of 100% of detectable biofilm (Example 2). As to conditions: eradicate 100% of detectable biofilm. It is filed as cell-based, Staphylococcus aureus. The method, then: In addition to determining the MIC, the minimum biofilm eradication concentration (MBEC) of PBC-51 was also determined. The MBEC was determined using the MBEC assay, formerly known as the Calgary Biofilm Device, developed by Innovotech. In this instance, the MBEC was defined as the amount of antimicrobial required to eradicate 100% of detectable biofilm after being grown in the MBEC device. To grow the biofilms within this device, 150 μL of solution containing a concentration of 10^5 cells/mL were inoculated into each well of a 96-well plate. A lid containing 96 pegs was placed onto the plate and incubated for 24 hours at 37° C. while being shaken at 110 rpm. Biofilms developed on the surface of the polystyrene pegs within the 96-well plate. After 24 hours, each peg contained between 10^5 and 10^6 cells in well-established biofilms. The lid with pegs was transferred to a 96-well plate that contained 200 μL of varying concentrations of the compound and was incubated at 37° C. for an additional 24 hours. The plate was then sonicated, and the biofilms quantified using a 10-fold dilution series to determine the MBEC.

Regarding `NCCCNCCCNCc1ccccc1` [CZ-7, benzylnorspermidine], the MIC against MRSA is over 1200 µg/mL. For the same compound, in the data set with biofilm of MRSA, the “dispersal of a biofilm of MRSA” value is “significant dispersal”.

For `CC(C)CNCCCNCCCNCc1cc(CNCCCNCCCNCC(C)C)cc(-c2ccccc2)c1` [CZ-86, N^1,N^1′-([1,1′-biphenyl]-3,5-diylbis(methylene))bis(N^3-(3-(isobutylamino)propyl)propane-1,3-diamine), hydrochloride salt], in the data set with human blood, the “Average Hemolytic Index (% Hemolysis)” value is given as 0.76 % Hemolysis; the “Hemolytic Grade” value is on record as “non-hemolytic”; the “difference between the hemolytic indexes of test article and negative control” value is given as 0.00%. Moreover, the “Average Optical Density” value in the data set with human blood (540 nm) is reported as 0.003. Besides, the “Optical Density” value in the data set with human blood (540 nm, three tubes, 37 ± 2° C., 3 hours) is reported as 0.003. Also, the “Corrected Hemolytic Index (% Hemolysis)” value in the data set with human blood (hemolytic index of the PBS blank subtracted) is reported as 0.00 % Hemolysis. For the same compound, in the data set with human blood (three tubes), the “Hemolytic Index” value is on record as 0.764.

Take `CN[C@H](CC(C)C)C(=O)N[C@H]1C(=O)N[C@@H](CC(N)=O)C(=O)N[C@H]2C(=O)N[C@H]3C(=O)N[C@H](C(=O)N[C@H](C(=O)O)c4cc(O)cc(O)c4-c4cc3ccc4O)[C@H](O)c3ccc(c(Cl)c3)Oc3cc2cc(c3O[C@@H]2O[C@H](CO)[C@@H](O)[C@H](O)[C@H]2O[C@H]2C[C@](C)(N)[C@H](O)[C@H](C)O2)Oc2ccc(cc2Cl)[C@H]1O` [vancomycin, reference compound]: the “MBEC (μg/mL/μM)” value with MRSA biofilm is > 500 μg/mL and > 336.50 μM.
